Laboratory results: ChEMBL document CHEMBL1201862, “PubChem BioAssay data set” (2004)
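Results reflect a 48-hour exposure of cells in 96-well plates to compound at five concentrations. At the GI50, growth is halved.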 Activity calls are given as the source filed them. Rule as the data show it: active = GI50 up to about 1.1 µM and inactive = higher.

Experiments:
Test in all cases: inhibition of tumour cell growth, NCI panel, 48 h
786-0 = test system: 786-0
A498 = test system: A498
A549 = test system: A549
ACHN = test system: ACHN
BT-549 = test system: BT-549
CAKI-1 = test system: CAKI-1
CCRF-CEM = test system: CCRF-CEM
COLO 205 = test system: COLO 205
DU-145 = test system: DU-145
EKVX = test system: EKVX
HCC 2998 = test system: HCC 2998
HCT-116 = test system: HCT-116
HCT-15 = test system: HCT-15
HL-60 = test system: HL-60
HOP-62 = test system: HOP-62
HOP-92 = test system: HOP-92
HT-29 = test system: HT-29
Hs-578T = test system: Hs-578T
IGROV-1 = test system: IGROV-1
K562 = test system: K562
KM12 = test system: KM12
LOX IMVI = test system: LOX IMVI
M14 = test system: M14
MCF7 = test system: MCF7
MDA-MB-231 = test system: MDA-MB-231
MDA-MB-435 = test system: MDA-MB-435
MDA-N = test system: MDA-N
MOLT-4 = test system: MOLT-4
Malme-3M = test system: Malme-3M
NCI-H226 = test system: NCI-H226
NCI-H23 = test system: NCI-H23
NCI-H522 = test system: NCI-H522
NCI/ADR-RES = test system: NCI/ADR-RES
OVCAR-3 = test system: OVCAR-3
OVCAR-4 = test system: OVCAR-4
OVCAR-5 = test system: OVCAR-5
OVCAR-8 = test system: OVCAR-8
PC-3 = test system: PC-3
RPMI-8226 = test system: RPMI-8226
RXF 393 = test system: RXF 393
SF-268 = test system: SF-268
SF-295 = test system: SF-295
SF-539 = test system: SF-539
SK-MEL-28 = test system: SK-MEL-28
SK-MEL-2 = test system: SK-MEL-2
SK-MEL-5 = test system: SK-MEL-5
SN12C = test system: SN12C
SNB-19 = test system: SNB-19
SW-620 = test system: SW-620
T47D = test system: T47D
TK-10 = test system: TK-10
U-251 = test system: U-251
UACC-257 = test system: UACC-257
UACC-62 = test system: UACC-62
UO-31 = test system: UO-31

O=c1[nH]nc(Cc2c[nH]c3ccccc23)o1
GI50 (786-0): > 100 µM (inactive)
GI50 (A498): > 100 µM (inactive)
GI50 (A549): > 100 µM (inactive)
GI50 (ACHN): > 100 µM (inactive)
GI50 (BT-549): > 100 µM (inactive)
GI50 (CAKI-1): > 100 µM (inactive)
GI50 (CCRF-CEM): > 100 µM (inactive)
GI50 (COLO 205): > 100 µM (inactive)
GI50 (DU-145): > 100 µM (inactive)
GI50 (EKVX): > 100 µM (inactive)
GI50 (HCC 2998): > 100 µM (inactive)
GI50 (HCT-116): > 100 µM (inactive)
GI50 (HCT-15): > 100 µM
GI50 (HL-60): > 100 µM (inactive)
GI50 (HOP-62): > 100 µM (inactive)
GI50 (HOP-92): > 100 µM (inactive)
GI50 (HT-29): > 100 µM (inactive)
GI50 (Hs-578T): > 100 µM (inactive)
GI50 (IGROV-1): > 100 µM (inactive)
GI50 (K562): > 100 µM (inactive)
GI50 (KM12): > 100 µM (inactive)
GI50 (LOX IMVI): > 100 µM (inactive)
GI50 (M14): > 100 µM (inactive)
GI50 (MCF7): > 100 µM (inactive)
GI50 (MDA-MB-231): > 100 µM (inactive)
GI50 (MDA-MB-435): > 100 µM (inactive)
GI50 (MDA-N): > 100 µM (inactive)
GI50 (MOLT-4): > 100 µM (inactive)
GI50 (Malme-3M): > 100 µM (inactive)
GI50 (NCI-H226): > 100 µM (inactive)
GI50 (NCI-H23): > 100 µM (inactive)
GI50 (NCI-H522): > 100 µM (inactive)
GI50 (NCI/ADR-RES): > 100 µM (inactive)
GI50 (OVCAR-3): > 100 µM (inactive)
GI50 (OVCAR-4): > 100 µM (inactive)
GI50 (OVCAR-5): > 100 µM (inactive)
GI50 (OVCAR-8): > 100 µM (inactive)
GI50 (PC-3): > 100 µM (inactive)
GI50 (RPMI-8226): > 100 µM (inactive)
GI50 (RXF 393): > 100 µM (inactive)
GI50 (SF-268): > 100 µM (inactive)
GI50 (SF-295): > 100 µM (inactive)
GI50 (SF-539): > 100 µM (inactive)
GI50 (SK-MEL-28): > 100 µM (inactive)
GI50 (SK-MEL-2): > 100 µM (inactive)
GI50 (SK-MEL-5): > 100 µM (inactive)
GI50 (SN12C): > 100 µM (inactive)
GI50 (SNB-19): > 100 µM (inactive)
GI50 (SW-620): > 100 µM (inactive)
GI50 (T47D): > 100 µM (inactive)
GI50 (TK-10): > 100 µM (inactive)
GI50 (U-251): > 100 µM (inactive)
GI50 (UACC-257): > 100 µM (inactive)
GI50 (UACC-62): > 100 µM (inactive)
GI50 (UO-31): > 100 µM (inactive)
